Values of other authors in patent publication US11304990B2, “Use of known compounds—intracellular infections” (ISR IMMUNE SYSTEM REGULATION HOLDING AB (PUBL), priority 2017, dated 2022).

Columns and labels:
[1] = test system: pituitary type I GnRH receptors
[2] = test system: CD4 T-lymphocyte; settings: diabetes-prone BB rats exhibiting an AIDS-like lymphocyte profile

pyroGlu-His-Trp-Ser-Tyr-Gly-Leu-Arg-Pro-Gly-NH2 [GnRH I, decapeptide gonadotropin releasing hormone]
fold higher affinity, pituitary vs breast cancer cell receptors ([1]; central pituitary binding compared with breast cancer cells): 1000 fold
Kd ([1]; central pituitary binding, read-out: binding affinity (Kd)): 4.8 nM
CD4 T-lymphocyte numbers [2]: increased
